One experiment has as its target T1, HDAC6 (Homo sapiens, UniProt Q9UBN7).
T1 construct: purchased Enzo Life Sciences BML-AK516
T1 sequence (Q9UBN7 1-1215): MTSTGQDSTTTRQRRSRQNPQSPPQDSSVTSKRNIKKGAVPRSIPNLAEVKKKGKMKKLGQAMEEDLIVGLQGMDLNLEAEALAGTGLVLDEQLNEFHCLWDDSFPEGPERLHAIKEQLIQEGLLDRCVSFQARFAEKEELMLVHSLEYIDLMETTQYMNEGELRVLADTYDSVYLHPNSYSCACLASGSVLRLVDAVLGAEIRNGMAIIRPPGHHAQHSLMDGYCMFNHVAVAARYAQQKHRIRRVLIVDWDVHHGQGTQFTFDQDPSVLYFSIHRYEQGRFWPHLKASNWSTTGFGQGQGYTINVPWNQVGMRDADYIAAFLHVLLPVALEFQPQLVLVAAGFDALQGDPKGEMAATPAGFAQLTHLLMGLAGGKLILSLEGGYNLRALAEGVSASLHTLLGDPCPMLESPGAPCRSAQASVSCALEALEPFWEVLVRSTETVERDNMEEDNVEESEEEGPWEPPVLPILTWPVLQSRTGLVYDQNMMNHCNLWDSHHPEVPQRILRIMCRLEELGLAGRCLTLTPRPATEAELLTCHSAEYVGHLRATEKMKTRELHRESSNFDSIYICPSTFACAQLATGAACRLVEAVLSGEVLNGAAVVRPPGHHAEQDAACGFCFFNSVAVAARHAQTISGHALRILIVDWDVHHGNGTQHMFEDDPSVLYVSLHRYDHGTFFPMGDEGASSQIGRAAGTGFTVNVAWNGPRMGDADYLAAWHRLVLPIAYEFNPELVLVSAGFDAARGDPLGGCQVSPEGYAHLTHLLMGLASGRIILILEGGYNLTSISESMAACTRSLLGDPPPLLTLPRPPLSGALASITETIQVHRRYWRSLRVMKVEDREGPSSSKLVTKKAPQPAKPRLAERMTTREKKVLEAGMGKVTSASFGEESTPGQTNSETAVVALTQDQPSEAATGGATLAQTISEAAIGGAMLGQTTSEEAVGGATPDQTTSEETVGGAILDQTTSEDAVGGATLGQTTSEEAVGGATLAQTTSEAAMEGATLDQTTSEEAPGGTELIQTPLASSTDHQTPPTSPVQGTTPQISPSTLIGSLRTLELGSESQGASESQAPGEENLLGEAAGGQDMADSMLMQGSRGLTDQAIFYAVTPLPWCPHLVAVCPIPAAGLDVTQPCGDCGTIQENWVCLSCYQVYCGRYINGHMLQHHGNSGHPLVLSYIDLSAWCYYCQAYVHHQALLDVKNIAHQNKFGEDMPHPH
Put plainly: HDAC6 deacetylase fluorometric assay with pure HDAC6 protein. In kind it is biochemical. Conditions: read-out: 50% inhibitory concentration (IC50) on HDAC6 activity. The procedure: Inhibition of HDAC6 activity was performed in accordance with the manufacturer’s protocol. Briefly, PRO-Br at various concentrations in HDAC Assay buffer II were prepared. The appropriate substrate solution provided in the kit was added, and the reaction plate was incubated at 37°C. The reaction was stopped by the addition of Developer II, and the fluorometric reading was measured at 440 nm using a fluorometer (Wallac EnVision).
HDAC6 is a cytoplasmic deacetylase that targets key proteins such as α-tubulin and HSP90. […] Therefore, inhibition of HDAC6 activity could be a promising therapeutic strategy for AD. […] To determine the binding of PRO/PRO-Br to HDAC6, we used molecular docking, and the binding affinity was determined from the binding free energies (Kcal/mol). From the docking study, the binding free energy of PRO-Br and PRO with HDAC6 was calculated to be −8.4 kcal/mol and −8.1 kcal/mol (Figures 5C–F), respectively.

The test system of the next experiment is HT22 cells. The experiment is described as follows: LAMP2A / HSC70 immunocytochemistry and immunoblotting. It is filed as cell-based, mouse. Conditions: immunocytochemistry, 12.5 and 25 μM, 24 h. The method, then:
SHSY5Y cells stably-expressing mutant tau (SHSYP301L) were cultured in DMEM/F12 + 15% FBS, 3 μg/ml Blasticidin S HCl, and 1X PSN. N2A mouse neuroblastoma and mouse hippocampal neuronal (HT22) cells were cultured in DMEM+10% FBS, and 1X PSN. Sterile complete medium containing PRO-Br was added to the cells, and they were then incubated for 24 h at an optimum temperature of 37°C in a sterile 5% CO2 incubator.
After PRO-Br treatment, cells were solubilised using cold RIPA lysis buffer (9803, Life Technologies), containing protease and phosphatase inhibitor tablets. Cells were sonicated and centrifuged at 14000 rpm for 15 min. Total protein concentration was determined by BCA protein assay, and the samples were separated on SDS-PAGE and transferred to PVDF membranes. The membranes were blocked, washed, and incubated with primary antibodies (Table 1), and incubated at 4°C, overnight. The membranes were further incubated with the required dilutions of secondary antibody for 1 h, at RT. The chemiluminescent signals were captured using x-ray film in a darkroom, with an appropriate chemiluminescent substrate kit (ThermoFisher Scientific, United States). Films were scanned, and the relative intensities of the signals were analyzed using ImageJ software.
HT22 cells were cultured in sterile 24-well culture dishes containing 14 mm cover-glass. Cells were treated with PRO-Br (12.5 and 25 μM), and DMSO (0.1%), for 24 h. Cells were fixed with paraformaldehyde (4%), permeabilized with triton-X-100 (0.1%), and blocked with BSA (2%). LAMP2A antibody (1:500), and HSC70 antibody (1:500) was added to the processed cells and incubated overnight at four°C. Alexa Fluor® 488 (green) and Alexa Fluor® 594 (red) secondary antibodies (1:400) were added and incubated for 1.5 h at room temperature. FluorSave reagent (Merck Millipore, United States) was added, then cover-slipped, and images were captured by a Leica confocal imaging system.

Molecules are shown by their SMILES.

On to `CN1CCc2cc3c(cc2C(=O)Cc2ccc4c(c2C1)OCO4)OCO3` [PRO, Protopine], for which, at HDAC6, the IC50 was determined as 2360 nM. In the experiment with HT22 cells, the “expression of LAMP2A” value was “did not enhance LAMP2A protein expression”.
